Measurements from patent US12178786B2, “Combination of cellular immunotherapy” (CRAGE medical Co., Limited, priority 2018, dated 2024).

Tests used:
IL2 = assay: Effect of sorafenib on cytokine secretion of CAR T cells (Cytometric Bead Array); assay type: cell-based, human; conditions: general statement of the applicant's finding
Description: As for the specific steps, referring to the steps in the manual of The Cytometric Bead Array System (BD, USA), which are briefly described as follows:
b) The microspheres (cytometric bead array system, BD, USA) capturing the human cytokine IL2, IFN-γ, and TNF-α are taken to mix in a suspension.
c) The mixture of the microspheres for capturing and detection antibody are added into the standard or supernatant sample, incubating at room temperature in the dark; after the incubation is completed, it is washed with washing buffer, then centrifuging, and discarding the supernatant.
The secretion levels of IL-2, IFN-γ and TNF-α are detected by flow cytometry, and the results are shown in FIGS. 8A, 8B, and 8C, wherein ns means p>0.05; *p<0.05; **p<0.01; ***p<0.001, one-way ANOVA.

[1] = compound II administrated alone in the clinical trial; cited from earlier work

CNC(=O)c1cc(Oc2ccc(NC(=O)Nc3ccc(Cl)c(C(F)(F)F)c3)cc2)ccn1 [sorafenib]
secretion of the cytokine IL2 by CAR T cells (IL2): promote CAR T cells to secrete the cytokine IL2 | approximate concentration in the patient's body [1]: ~6.5 µM
